{"source": "patent US20080076718A1", "about": "“Novel Proteasome Modulators” (priority 2003, published 2008)", "assay_type_in_all_cases": "biochemical, yeast (Saccharomyces cerevisae)", "key": {"[1]": {"target": "T1, yeast activated 20S proteasome (CT-L activity) (Saccharomyces cerevisiae, UniProt P23724+P30656)", "T1 construct": "The yeast (Saccharomyces cerevisae) 26S and 20S proteasomes were purified according to the protocol described in; made in house; host or cells: Saccharomyces cerevisiae (native complex purified from yeast by the cited Leggett et al. 2002 protocol)", "assay": "Inhibition of the CT-L (chymotrypsin-like) peptidase activity of the activated 20S proteasome, substrate Suc-LLVY-amc", "details": "for Increase of the inhibitory capacity compared with the unmodified peptide (factor): lipopeptide versus corresponding peptide, CT-L activity of activated 20S proteasome; for Inhibitory effect of the lipopeptides on the CT-L activity: yeast activated 20S proteasome, after treatment with 35 μM of lipopeptide (17.5 μM for C18/TVTYKF)", "protocol": "(§1) The yeast (Saccharomyces cerevisae) 26S and 20S proteasomes were purified according to the protocol described in: LEGGETT et al. (2002) Molecular Cell, 10, pp 495-507.\n(§2) The peptidase activities were determined using the fluorogenic substrates Suc-LLVY-amc (CT-L), Z-LLE-βNA (PA) and Boc-LRR-amc (T-L), provided by the company Bachem (Voisins-le-Bretonneux, France).\n(§3) The peptidase activities of the yeast and Xenopus 26S proteasomes and those of the yeast 20S proteasome, latent and activated, were determined under the conditions described in Table II.\n(§4) The compounds studied are solubilized in the buffer (peptides, pseudopeptides) or in DMSO (lipopeptides, photoactivatable peptides). The enzyme is preincubated (15 min at 30° C.) in the corresponding buffer (Table II), in the presence of the inhibitor. For the cases where the inhibitor is solubilized in DMSO (lipopeptides, photoactivatable peptides), the control without inhibitor contains an amount of DMSO identical to that of the assays with inhibitor (3.5% v/v). The reaction is triggered by adding the substrate. It is continuously monitored for 30 min at 30° C. The initial rates of the assays with inhibitors (calculated from the experimental points) are compared with those of the controls. The results presented were obtained by calculating the mean of at least two independent assays. The variability is less than 10%.\n(§5) The IC50 parameter corresponds to the concentration of inhibitor that results in a 50% loss of enzymatic activity.\n(§6) The enzyme is preincubated in the presence of increasing concentrations of inhibitor. The reaction is triggered by adding the substrate (see paragraph “Detection and study of the inhibitory effects”). The percentage inhibition is calculated from equation 1.\n(§7) The experimental points describe the evolution of the inhibitory effect of the compound studied as a function of its concentration. As a general rule, they fit with the curve described by equation 2 in which [I] is the concentration of inhibitor\nThe mechanism of inhibition is determined by tracing the curve of the evolution of the V0/Vi ratio as a function of the concentration of inhibitor."}, "[2]": {"target": "T2, activated 20S proteasome (PA activity) (Saccharomyces cerevisiae, UniProt P25043+P38624)", "T2 construct": "The yeast (Saccharomyces cerevisae) 26S and 20S proteasomes were purified according to the protocol described in; made in house; host or cells: Saccharomyces cerevisiae (native complex purified from yeast by the cited Leggett et al. 2002 protocol)", "assay": "Inhibition of the post-acid (PA) peptidase activity of the activated 20S proteasome, substrate Z-LLE-βNA", "protocol": "as §1, §2, §3, §4, §5, §6, §7"}, "[3]": {"target": "T3, latent 20S proteasome (CT-L activity) (Saccharomyces cerevisiae, UniProt P23724+P30656)", "T3 construct": "The yeast (Saccharomyces cerevisae) 26S and 20S proteasomes were purified according to the protocol described in; made in house; host or cells: Saccharomyces cerevisiae (native complex purified from yeast by the cited Leggett et al. 2002 protocol)", "assay": "Activating effect on the CT-L activity of the latent 20S proteasome (activation factor fa)", "parameters": "key: fa = initial rate with compound / initial rate of control (Va/V0)", "details": "fa = Va/V0, concentration not given", "protocol": "as §1, §2, §3\n(§8) The compounds studied are solubilized in the buffer or in DMSO. The enzyme is preincubated (15 minutes at 30° C.) in the corresponding buffer (Table II), in the presence of the molecule to be tested. When the molecule is solubilized in DMSO, the control (no addition molecule to be tested) contains an amount of DMSO identical to that of the assays(3.5% v/v). The reaction is triggered by adding the substrate. It is continuously monitored for 30 minutes at 30° C. The results presented were obtained by calculating the mean of at least two independent assays. An activation is characterized by an activity, after treatment with the molecule tested, of greater than 100%. The variability is less than 10%. The results are expressed by means of an activation factor fa equal to the ratio of the initial rate Va in the presence of the compound tested to the initial rate of the control V0."}, "[4]": {"target": "T4, latent 20S proteasome (T-L activity) (Saccharomyces cerevisiae, UniProt P25043+P25451)", "T4 construct": "The yeast (Saccharomyces cerevisae) 26S and 20S proteasomes were purified according to the protocol described in; made in house; host or cells: Saccharomyces cerevisiae (native complex purified from yeast by the cited Leggett et al. 2002 protocol)", "assay": "Activating effect on the T-L activity of the latent 20S proteasome (activation factor fa)", "details": "fa = Va/V0, concentration not given", "protocol": "as §1, §2, §3, §8"}, "[5]": {"details": "activated 20S proteasome, read-out: CT-L activity: IC50"}}, "note": "Like-named read-outs stand apart in the source and are kept apart here. Square brackets hold non-standard residues; d marks the D form. Ends that are not written are not given here. Peptide text beside a SMILES is read from it. * marks the point of attachment. Biotin = O=C1N[C@H]2[C@H](CS[C@H]2CCCCC(=O)*)N1; Bpa = N[C@@H](Cc1ccc(C(=O)c2ccccc2)cc1)C(=O)O; Decanoyl = CCCCCCCCCC(=O)*; Octanoyl = CCCCCCCC(=O)*; Ava = NCCCCC(=O)O"}
{"compound": "CCCCCCCC(=O)N[C@H](C(=O)N[C@H](C(=O)N[C@H](C(=O)N[C@@H](Cc1ccc(O)cc1)C(=O)N[C@@H](CCCCN)C(=O)N[C@@H](Cc1ccccc1)C(=O)O)[C@@H](C)O)C(C)C)[C@@H](C)O", "note": "[C8/TVTYKF, CH3—(CH2)6—CO-TVTYKF] (Octanoyl-TVTYKF-OH; C-terminus assumed)", "values": [{"measurement": "IC50", "setting": "[1]; [5]", "value": "~35", "unit": "µM"}, {"measurement": "Increase of the inhibitory capacity compared with the unmodified peptide (factor)", "setting": "[1]", "value": 17}, {"measurement": "Inhibitory effect of the lipopeptides on the CT-L activity", "setting": "[1]", "value": 50, "unit": "%"}]}
{"compound": "CCCCCCCCCC(=O)N[C@H](C(=O)N[C@H](C(=O)N[C@H](C(=O)N[C@@H](Cc1ccccc1)C(=O)N[C@@H](CCCCN)C(=O)N[C@@H](Cc1ccccc1)C(=O)O)[C@@H](C)O)C(C)C)[C@@H](C)O", "note": "[C10/TVTFKF, CH3—(CH2)8—CO-TVTFKF] (Decanoyl-TVTFKF-OH; C-terminus assumed)", "values": [{"measurement": "IC50", "setting": "[1]; [5]", "value": "~35", "unit": "µM"}, {"measurement": "Increase of the inhibitory capacity compared with the unmodified peptide (factor)", "setting": "[1]", "value": 6.5}, {"measurement": "Inhibitory effect of the lipopeptides on the CT-L activity", "setting": "[1]", "value": 42, "unit": "%"}]}
{"compound": "CC(C)C[C@@H](CNCC(=O)N1CCC[C@H]1C(=O)N[C@@H](CO)C(=O)O)NC(=O)[C@H](CC(N)=O)NC(=O)[C@@H](N)[C@@H](C)O", "note": "[Pseudopeptide 1, TNL-ψ[CH2—NH]-GPS]", "values": [{"measurement": "Mechanism of inhibition (kinetic analysis, V0/Vi versus inhibitor concentration)", "setting": "[1]; activated 20S proteasome", "value": "reacts with the catalytic sites and the regulatory site(s)"}, {"measurement": "IC50", "setting": "[1]; estimated values, activity type not named at the place, peptide tested under conditions where its hydrolysis is negligible, read-out: IC50 (activated 20S proteasome inhibitor)", "value": 380, "unit": "µM"}, {"measurement": "inhibition at 500 µM", "setting": "[2]; inhibitor 500 μM", "value": 63, "unit": "%"}]}
{"compound": "CC(C)[C@H](NC(=O)[C@@H](NC(=O)CCCCNC(=O)CCCC[C@@H]1SC[C@@H]2NC(=O)N[C@@H]21)[C@@H](C)O)C(=O)N[C@H](C(=O)N[C@@H](Cc1ccc(C(=O)c2ccccc2)cc1)C(=O)N[C@@H](CCCCN)C(=O)N[C@@H](Cc1ccccc1)C(=O)O)[C@@H](C)O", "note": "[Pseudopeptide 3, Biot-Ava-TVT-Bpa-KF] ({Biotin-Ava}-TVT[Bpa]KF-OH; C-terminus assumed)", "values": [{"measurement": "IC50", "setting": "[1]; enzyme form and activity not stated at the place, read-out: IC50", "value": 32, "unit": "µM"}]}
{"compound": "Ac-TNL-ψ[CH2—NH]-GPS [Pseudopeptide 2]", "values": [{"measurement": "Effectiveness relative to pseudopeptide 1", "setting": "[1]; activated 20S proteasome", "value": "half as effective as 1"}, {"measurement": "Inhibition of the post-acid activity PA", "setting": "[2]; inhibitor 1 mM", "value": 28, "unit": "%"}]}
{"compound": "CH3—(CH2)12—CO-TVTYKF [C14/TVTYKF]", "values": [{"measurement": "fa CT-L activity", "setting": "[3]", "value": 2}, {"measurement": "Inhibitory effect of the lipopeptides on the CT-L activity", "setting": "[1]", "value": 0, "unit": "%"}]}
{"compound": "CH3—(CH2)14—CO-TITFDY [C16/TITFDY]", "values": [{"measurement": "fa CT-L activity", "setting": "[3]", "value": 3}, {"measurement": "Inhibitory effect of the lipopeptides on the CT-L activity", "setting": "[1]", "value": 20, "unit": "%"}]}
{"compound": "CH3—(CH2)14—CO-TVTYKF", "values": [{"measurement": "fa CT-L activity", "setting": "[3]", "value": 2}]}
{"compound": "CH3—(CH2)16—CO-TITFDY [C18/TITFDY]", "values": [{"measurement": "fa T-L activity", "setting": "[4]", "value": 1.2}, {"measurement": "fa CT-L activity", "setting": "[3]", "value": 6}, {"measurement": "Inhibitory effect of the lipopeptides on the CT-L activity", "setting": "[1]", "value": 34, "unit": "%"}]}
{"compound": "CH3—(CH2)16—CO-TVTYKF", "values": [{"measurement": "fa CT-L activity", "setting": "[3]", "value": 3.2}]}
{"compound": "TITFDY [reference compound]", "values": [{"measurement": "fa T-L activity", "setting": "[4]", "value": 3}, {"measurement": "fa CT-L activity", "setting": "[3]", "value": 5}]}
{"compound": "TITYDF", "values": [{"measurement": "fa T-L activity", "setting": "[4]", "value": 2.5}]}
{"compound": "TITYEY [reference compound]", "values": [{"measurement": "fa CT-L activity", "setting": "[3]", "value": 2}]}
{"compound": "TITYKF [TITYKF, reference compound]", "values": [{"measurement": "Mechanism of inhibition (kinetic analysis, V0/Vi versus inhibitor concentration)", "setting": "[1]; activated 20S proteasome", "value": "parabolic kinetics"}, {"measurement": "IC50", "setting": "[1]; [5]", "value": 260, "unit": "µM"}, {"measurement": "IC50", "setting": "[2]", "value": 336, "unit": "µM"}]}
{"compound": "TVTFKF [TVTFKF, reference compound]", "values": [{"measurement": "fa T-L activity", "setting": "[4]", "value": 1.7}, {"measurement": "fa CT-L activity", "setting": "[3]", "value": 2.3}, {"measurement": "Mechanism of inhibition (kinetic analysis, V0/Vi versus inhibitor concentration)", "setting": "[1]; activated 20S proteasome", "value": "parabolic kinetics"}, {"measurement": "IC50", "setting": "[1]; [5]", "value": 229, "unit": "µM"}, {"measurement": "IC50", "setting": "[2]", "value": 210, "unit": "µM"}]}
